From PubChem BioAssay AID2060605 (Molecular Pharmacology Branch, DTP, NCI, 2025)

Test system: 947758-054-R-J2-PDC spheroid growth, percent test/control
Assay: Anticancer human tumor 947758-054-R-J2-PDC patient-derived colon adenocarcinoma cell line growth inhibition [CLK]
Settings: spheroids with HUVEC and MSC; for IC50: curve of first compound; for viability, T/C: stronger effect = lower value
Excerpt: A high-throughput screen of multi-cell type tumor spheroids was designed to identify active combinations of […] and targeted small molecules. Complex spheroids include a stromal component modeled by human endothelial cells (HUVEC) and fibroblasts modeled by human mesenchymal stem cells (MSCs). The concentration ranges selected for each drug and investigational agent were based upon clinically achievable concentrations if the clinical Cmax of the agent was known.
Compounds. The drugs and investigational agents: cirtuvivint (SM08502; NSC835563), CC-671 (NSC850746), vemurafenib (NSC761431), tapotoclax (NSC804041), sotorasib (NSC818433), adagrasib (NSC831453), MRTX-1133 (NSC836407), BAY2416964 (NSC825713), copanlisib (NSC816437), inavolisib (NSC800729), abemaciclib (NSC768073), osimertinib (NSC779217), entinostat (NSC756642), eltanexor (KPT-8602, NSC794443), venetoclax (NSC766270), ceralasertib (NSC777638), bortezomib (NSC756655), olaparib (NSC753686), talazoparib (NSC767125), alisertib (NSC759677), peposertib (NSC802822), gemcitabine (NSC613327), 5-fluorouracil (NSC19893), SN-38 (NSC673596), oxaliplatin (NSC266046), paclitaxel (NSC125973), and doxorubicin (NSC123127), were obtained from the National Cancer Institute (NCI) Developmental Therapeutics Program Chemical Repository. The FDA-approved anticancer drug set is available from the Developmental Therapeutics Program at https://dtp.cancer.gov/organization/dscb/obtaining/available plates.htm. […] The stock solutions were prepared in dimethyl sulfoxide (DMSO, Sigma-Aldrich, St. Louis, MO, cat. D2650), except for the platinum complexes which were prepared in saline (Quality Biological, Gaithersburg, MD, cat. 114-055-101), at 800-fold the tested concentration and stored at -70 degrees C prior to their use. All drugs and investigational agents were tested over a range starting from a high concentration at or near the clinical Cmax and decreasing in half-log increments. If the clinical Cmax for an agent had not been determined, the highest concentration tested was 10 microM.
Cell Culture. All cells were maintained in an incubator at 37 degrees C and 5% CO2 with 95% humidity. The PDC lines were cultured according to standard operating procedures established by the NCI PDMR. Briefly, all PDCs were thawed and cultured in Matrigel-coated flasks prepared with a working solution of 1X Ham's F-12 nutrient mix, without supplementation (Invitrogen, Waltham, MA, cat. 11765054), 100 U/mL penicillin-streptomycin (Invitrogen, cat. 15140122), and 2.5% Matrigel (Corning Inc., Corning, NY, cat. 354248) for the first three passages. The 947758-054-R-J2-PDC line was cultured in 6B/Colon 1A media, which includes advanced DMEM/F-12 (Thermo Fisher Scientific, cat. 12634028), 10 mM HEPES (Thermo Fisher Scientific, cat. 15630080), 1X GlutaMAX supplement (Thermo Fisher Scientific, cat. 35050061), 0.1 mg/mL primocin (InvivoGen, cat. ant-pm-2), 10% defined fetal bovine serum, heat inactivated (HyClone Laboratories Inc., cat. SH30070.03HI), 1.25 mM N-Acetyl-L-cysteine (Sigma-Aldrich, cat. A9165), 10 mM nicotinamide (Sigma-Aldrich, cat. N0636), 1X B-27 supplement (Thermo Fisher Scientific, cat. 17504044), 1X N-2 supplement (Thermo Fisher Scientific, cat. 17502048), and 10 microM Y-27632 dihydrochloride (Tocris Bioscience, cat. 1254). The 876862-298-R-J1-PDC was cultured in 6E media, which includes all 6B/Colon 1A media components plus 50% L-WRN conditioned media (ATCC, cat. CRL-3276), 50 ng/mL recombinant human EGF recombinant protein (hEGF; Thermo Fisher Scientific, cat. PHG0311), 10 ng/mL recombinant human fibroblast growth factor 10 (hGFG-10; PeproTech, cat. 100-26), 1 ng/mL recombinant human fibroblast growth factor 2 (hFGF-2; PeproTech, cat. 100-18B), and 1 µM prostaglandin E2 (PGE2; Tocris, cat. 2296). The 227483-062-R1-J1-PDC line was cultured in Panc media, containing all 6E components except hFGF-2, with the addition of 500 nM SB-431542 (Selleckchem, cat. S1067) and 10 nM gastrin (Tocris, cat. 3006). […]

[1] = second compound 0.0316 µM, first compound 0.0316 µM
[2] = second compound 0.0316 µM, first compound 0.1 µM
[3] = second compound 0.0316 µM, first compound 0.316 µM
[4] = second compound 0.0316 µM, first compound 1 µM
[5] = second compound 0.0316 µM, first compound 3.16 µM
[6] = second compound 0.0316 µM, first compound 10 µM
[7] = second compound 0.1 µM, first compound 0.0316 µM
[8] = second compound 0.1 µM, first compound 0.1 µM
[9] = second compound 0.1 µM, first compound 0.316 µM
[10] = second compound 0.1 µM, first compound 1 µM
[11] = second compound 0.1 µM, first compound 3.16 µM
[12] = second compound 0.1 µM, first compound 10 µM
[13] = second compound 0.316 µM, first compound 0.0316 µM
[14] = second compound 0.316 µM, first compound 0.1 µM
[15] = second compound 0.316 µM, first compound 0.316 µM
[16] = second compound 0.316 µM, first compound 1 µM
[17] = second compound 0.316 µM, first compound 3.16 µM
[18] = second compound 0.316 µM, first compound 10 µM
[19] = second compound 1 µM, first compound 0.0316 µM
[20] = second compound 1 µM, first compound 0.1 µM
[21] = second compound 1 µM, first compound 0.316 µM
[22] = second compound 1 µM, first compound 1 µM
[23] = second compound 1 µM, first compound 3.16 µM
[24] = second compound 1 µM, first compound 10 µM
[25] = second compound 3.16 µM, first compound 0.0316 µM
[26] = second compound 3.16 µM, first compound 0.1 µM
[27] = second compound 3.16 µM, first compound 0.316 µM
[28] = second compound 3.16 µM, first compound 1 µM
[29] = second compound 3.16 µM, first compound 3.16 µM
[30] = second compound 3.16 µM, first compound 10 µM
[31] = second compound 10 µM, first compound 0.0316 µM
[32] = second compound 10 µM, first compound 0.1 µM
[33] = second compound 10 µM, first compound 0.316 µM
[34] = second compound 10 µM, first compound 1 µM
[35] = second compound 10 µM, first compound 3.16 µM
[36] = second compound 10 µM, first compound 10 µM
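Further: spheroids exposed to compounds for one week before readout.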
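Wherever viability, T/C is given: 100% = DMSO vehicle control wells.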

## C#Cc1c(F)ccc2cc(O)cc(-c3ncc4c(N5CC6CCC(C5)N6)nc(OCC56CCCN5CC(F)C6)nc4c3F)c12 (centres undefined) + CN1CCN(c2cc(C(=O)Nc3cc4cc(-c5cnn(C)c5)ccc4cn3)ccn2)CC1
Second compound 0.0316 µM
  IC50: > 10000 nM
Second compound 0.1 µM
  IC50: > 10000 nM
Second compound 0.316 µM
  IC50: < 31.6 nM
Second compound 1 µM
  IC50: < 31.6 nM
Second compound 3.16 µM
  IC50: < 31.6 nM
Second compound 10 µM
  IC50: < 31.6 nM
[1]
  viability, T/C: 103%
[2]
  viability, T/C: 123%
[3]
  viability, T/C: 126%
[4]
  viability, T/C: 73.3%
[5]
  viability, T/C: 107%
[6]
  viability, T/C: 118%
[7]
  viability, T/C: 145%
[8]
  viability, T/C: 214%
[9]
  viability, T/C: 187%
[10]
  viability, T/C: 214%
[11]
  viability, T/C: 216%
[12]
  viability, T/C: 148%
[13]
  viability, T/C: 5.41%
[14]
  viability, T/C: 7.64%
[15]
  viability, T/C: 7.09%
[16]
  viability, T/C: 6.71%
[17]
  viability, T/C: 6%
[18]
  viability, T/C: 5.97%
[19]
  viability, T/C: 0.17%
[20]
  viability, T/C: 0.21%
[21]
  viability, T/C: 0.18%
[22]
  viability, T/C: 0.22%
[23]
  viability, T/C: 0.19%
[24]
  viability, T/C: 0.21%
[25]
  viability, T/C: 0.19%
[26]
  viability, T/C: 0.24%
[27]
  viability, T/C: 0.24%
[28]
  viability, T/C: 0.2%
[29]
  viability, T/C: 0.23%
[30]
  viability, T/C: 0.67%
[31]
  viability, T/C: 0.38%
[32]
  viability, T/C: 0.42%
[33]
  viability, T/C: 0.33%
[34]
  viability, T/C: 0.37%
[35]
  viability, T/C: 0.37%
[36]
  viability, T/C: 0.26%

## CC(CO)NC(=O)c1cc(-c2ccc(Cl)cc2)nn(-c2cnn(C)c2)c1=O (centres undefined) + CN1CCN(c2cc(C(=O)Nc3cc4cc(-c5cnn(C)c5)ccc4cn3)ccn2)CC1
Second compound 0.0316 µM
  IC50: > 10000 nM
Second compound 0.1 µM
  IC50: > 10000 nM
Second compound 0.316 µM
  IC50: < 31.6 nM
Second compound 1 µM
  IC50: < 31.6 nM
Second compound 3.16 µM
  IC50: < 31.6 nM
Second compound 10 µM
  IC50: < 31.6 nM
[1]
  viability, T/C: 91.8%
[2]
  viability, T/C: 112%
[3]
  viability, T/C: 105%
[4]
  viability, T/C: 110%
[5]
  viability, T/C: 126%
[6]
  viability, T/C: 155%
[7]
  viability, T/C: 184%
[8]
  viability, T/C: 179%
[9]
  viability, T/C: 175%
[10]
  viability, T/C: 199%
[11]
  viability, T/C: 182%
[12]
  viability, T/C: 133%
[13]
  viability, T/C: 5.49%
[14]
  viability, T/C: 6.26%
[15]
  viability, T/C: 5.8%
[16]
  viability, T/C: 5.69%
[17]
  viability, T/C: 4.92%
[18]
  viability, T/C: 2.57%
[19]
  viability, T/C: 0.15%
[20]
  viability, T/C: 0.19%
[21]
  viability, T/C: 0.18%
[22]
  viability, T/C: 0.36%
[23]
  viability, T/C: 0.15%
[24]
  viability, T/C: 0.14%
[25]
  viability, T/C: 0.28%
[26]
  viability, T/C: 0.97%
[27]
  viability, T/C: 0.25%
[28]
  viability, T/C: 0.24%
[29]
  viability, T/C: 0.25%
[30]
  viability, T/C: 0.31%
[31]
  viability, T/C: 0.4%
[32]
  viability, T/C: 0.42%
[33]
  viability, T/C: 0.35%
[34]
  viability, T/C: 0.41%
[35]
  viability, T/C: 0.42%
[36]
  viability, T/C: 0.36%
